Experimental findings from patent US20040009988A1 (priority 2000, published 2004) are described below.

For one data set, the target named is human MTP (Homo sapiens, UniProt P55157). As to the kind of experiment: human MTP activity assay (SPA, 3H-triolein transfer between liposomes). It counts as biochemical. As to conditions: MTP-mediated 3H-triolein transfer from donor to acceptor liposomes, 25 min at 37° C., streptavidin-SPA beads. As for the experimental part:
The ability of the compounds of this invention to inhibit human MTP activity is measured by an in vitro assay where MTP tranfers 3H-triolein between phosphatidylcholine liposomes. The specificity of the compounds of the invention is established by comparing the effects on apoB-100 and apoprotein A-1 production. A specificity of at least 100 is preferred.
The human MTP activity assay was established using SPA technology. Donor liposomes were prepared with 3H-triolein and phosphatidylcholine, while acceptor liposomes contained biotinylated phosphatidylethanolamine and phosphatidylcholine. The MTP-mediated 3H-triolein transfer onto acceptor liposomes was allowed by a 25 min incubation at 37° C., and quantified by the addition of streptavidin-SPA beads.

human MTP, sequence (P55157 19-894): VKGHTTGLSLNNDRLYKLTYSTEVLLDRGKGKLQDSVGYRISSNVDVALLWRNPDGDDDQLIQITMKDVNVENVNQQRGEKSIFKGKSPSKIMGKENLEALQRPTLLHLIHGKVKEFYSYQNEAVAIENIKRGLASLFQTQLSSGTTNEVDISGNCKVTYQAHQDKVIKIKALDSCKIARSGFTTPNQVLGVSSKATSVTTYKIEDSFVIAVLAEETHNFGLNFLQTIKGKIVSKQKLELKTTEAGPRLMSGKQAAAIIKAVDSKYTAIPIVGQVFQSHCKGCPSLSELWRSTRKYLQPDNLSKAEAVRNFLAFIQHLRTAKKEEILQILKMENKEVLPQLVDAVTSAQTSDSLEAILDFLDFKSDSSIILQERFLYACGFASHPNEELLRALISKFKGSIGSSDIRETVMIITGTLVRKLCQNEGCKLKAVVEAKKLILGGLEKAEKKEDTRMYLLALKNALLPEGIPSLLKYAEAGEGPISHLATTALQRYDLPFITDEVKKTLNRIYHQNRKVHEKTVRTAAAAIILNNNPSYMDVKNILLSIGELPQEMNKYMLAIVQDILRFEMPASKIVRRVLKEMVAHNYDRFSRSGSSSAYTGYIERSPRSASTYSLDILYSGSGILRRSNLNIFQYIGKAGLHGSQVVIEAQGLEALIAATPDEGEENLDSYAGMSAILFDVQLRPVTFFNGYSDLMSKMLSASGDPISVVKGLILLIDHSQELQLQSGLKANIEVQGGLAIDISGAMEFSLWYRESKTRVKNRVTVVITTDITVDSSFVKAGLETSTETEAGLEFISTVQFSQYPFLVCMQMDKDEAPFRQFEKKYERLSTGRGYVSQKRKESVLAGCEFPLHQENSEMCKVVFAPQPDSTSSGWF
human MTP, sequence (P07237 18-508 partner): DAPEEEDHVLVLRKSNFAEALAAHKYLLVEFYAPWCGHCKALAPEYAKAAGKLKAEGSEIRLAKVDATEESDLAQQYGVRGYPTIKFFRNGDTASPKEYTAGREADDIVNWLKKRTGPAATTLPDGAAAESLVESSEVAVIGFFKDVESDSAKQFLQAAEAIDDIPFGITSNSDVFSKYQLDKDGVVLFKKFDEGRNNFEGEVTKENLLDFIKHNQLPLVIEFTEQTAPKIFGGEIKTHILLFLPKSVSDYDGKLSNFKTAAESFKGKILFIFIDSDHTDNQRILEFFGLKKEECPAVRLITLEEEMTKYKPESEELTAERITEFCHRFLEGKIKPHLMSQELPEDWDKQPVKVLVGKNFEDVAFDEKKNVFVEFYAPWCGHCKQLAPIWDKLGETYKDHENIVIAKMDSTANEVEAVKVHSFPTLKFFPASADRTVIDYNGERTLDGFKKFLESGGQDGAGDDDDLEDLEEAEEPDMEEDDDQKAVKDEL

`CC(C)c1ccc(-c2c(C(=O)Nc3ccc(N4CCN(C(C)C)CC4)nc3)cccc2C(C)C)cc1` [Example 26, 4′,6-Diisopropyl-biphenyl-2-carboxylic acid-[2-(4-(isopropyl)-piperazin-1-yl)-pyridin-5-yl]-amide] came in with a melting point of 136 °C.
On the same count and under the same terms, the value for `N#Cc1cccc(CN2CCN(c3ccc(NC(=O)c4ccccc4-c4ccc(C(F)(F)F)cc4)cn3)CC2)c1` [Example 17, 4′-Trifluoromethyl-biphenyl-2-carboxylic acid [2-(4-(3-cyano-benzyl)-piperazin-1-yl)-pyridin-5-yl]-amide] was 168 °C; that for `Cc1cccc(C(=O)Nc2ccc(N3CCN(CC(N)=O)CC3)nc2)c1-c1ccc(C(F)(F)F)cc1` [Example 2, 6-Methyl-4′-trifluoromethyl-biphenyl-2-carboxylic acid [2-(4-carbamoylmethyl-piperazin-1-yl)-pyridin-5-yl]-amide] was 180 to 181 °C.
`Cc1cccc(C(=O)Nc2ccc(N3CCN(CC(N)=O)CC3)nc2)c1-c1ccc(C(C)C)cc1` [Example 1, 4′-Isopropyl-6-methyl-biphenyl-2-carboxylic acid [2-(4-carbamoylmethyl-piperazin-1-yl)-pyridin-5-yl]-amide]: the melting point lay within 200 to 202 °C. At human MTP, this compound displayed an IC50 of 0.3 nM.
In turn, `C=CCN1CCN(c2ccc(NC(=O)c3cccc(C(C)C)c3-c3ccc(C(C)C)cc3)cn2)CC1` [Example 25] yielded a 50% inhibitory concentration (IC50) on human MTP below 0.1 nM.
Take `Cc1cccc(C(=O)Nc2ccc(N3CCN(Cc4ccc[nH]4)CC3)nc2)c1-c1ccc(C(C)C)cc1` [Example 5, 4′-Isopropyl-6-methyl-biphenyl-2-carboxylic acid [2-(4-(1H-pyrrol-2-ylmethyl)piperazin-1-yl)-pyridin-5-yl]-amide]: the melting point was determined as 130 °C. In addition, the IC50 against human MTP worked out at 0.1 nM.
The compound `Cc1noc(-c2cccc(CN3CCN(c4ccc(NC(=O)c5cccc(C)c5-c5ccc(C(C)C)cc5)cn4)CC3)c2)n1` [Example 10, 4′-Isopropyl-6-methyl-biphenyl-2-carboxylic acid [2-(4-(3-(3-methyl-[1,2,4]oxadiazol-5-yl)-benzyl)-piperazin-1-yl)-pyridin-5-yl]-amide] displayed a melting point of 150 to 152 °C.
The compound `COc1cccc(C(=O)Nc2ccc(N3CCN(Cc4cccc(-c5nc(C)no5)c4)CC3)nc2)c1-c1ccc(C(C)C)cc1` [Example 12, 4′-Isopropyl-6-methoxy-biphenyl-2-carboxylic acid [2-(4-(3-(3-methyl-[1,2,4]oxadiazol-5-yl)-benzyl)-piperazin-1-yl)-pyridin-5-yl]-amide] returned a melting point of 136 to 138 °C.
For `CC(C)c1ccc(-c2c(C(=O)Nc3ccc(N4CCN(Cc5cccc(C#N)c5)CC4)nc3)cccc2C(C)C)cc1` [Example 15, 4′,6-Diisopropyl-biphenyl-2-carboxylic acid [2-(4-(3-cyano-benzyl)-piperazin-1-yl)-pyridin-5-yl]-amide], the melting point was found to be 151 °C. At human MTP, half-maximal inhibition (IC50) required 0.16 nM.
For the compound `COc1cccc(C(=O)Nc2ccc(N3CCN(Cc4ccc[nH]4)CC3)nc2)c1-c1ccc(C(C)C)cc1` [Example 7, 4′-Isopropyl-6-methoxy-biphenyl-2-carboxylic acid [2-(4-(1H-pyrrol-2-ylmethyl)piperazin-1-yl)-pyridin-5-yl]-amide], the melting point was 197 to 199 °C.
As to `Cc1noc(-c2cccc(CN3CCN(c4ccc(NC(=O)c5cccc(C(C)C)c5-c5ccc(C(C)C)cc5)cn4)CC3)c2)n1` [Example 13, 4′,6-Diisopropyl-biphenyl-2-carboxylic acid [2-(4-(3-(3-methyl-[1,2,4]oxadiazol-5-yl)-benzyl)-piperazin-1-yl)-pyridin-5-yl]-amide], the melting point was found to be 125 °C.
On the same count and under the same terms, the value for `CC(C)c1ccc(-c2c(C(=O)Nc3ccc(N4CCN(CC(N)=O)CC4)nc3)cccc2C(C)C)cc1` [Example 4, 4′,6-Diisopropyl-biphenyl-2-carboxylic acid [2-(4-carbamoylmethyl-piperazin-1-yl)-pyridin-5-yl]-amide] was 169 °C.
`COc1cccc(C(=O)Nc2ccc(N3CCN(Cc4cccc(C#N)c4)CC3)nc2)c1-c1ccc(C(C)C)cc1` [Example 18, 4′-Isopropyl-6-methoxy-biphenyl-2-carboxylic acid [2-(4-(3-cyano-benzyl)-piperazin-1-yl)-pyridin-5-yl]-amide] had a melting point of 194 to 196 °C.
In turn, `CCCN1CCN(c2ccc(NC(=O)c3cccc(C(C)C)c3-c3ccc(C(C)C)cc3)cn2)CC1` [Example 23, 4′,6-Diisopropyl-biphenyl-2-carboxylic acid-[2-(4-propyl-piperazin-1-yl)-pyridin-5-yl]-amide] came in with a melting point of 126 to 128 °C.
As to `Cc1noc(-c2cccc(CN3CCN(c4ccc(NC(=O)c5ccccc5-c5ccc(C(F)(F)F)cc5)cn4)CC3)c2)n1` [Example 9, 4′-Trifluoromethyl-biphenyl-2-carboxylic acid [2-(4-(3-(3-methyl-[1,2,4]oxadiazol-5-yl)-benzyl)-piperazin-1-yl)-pyridin-5-yl]-amide], the melting point is 192 to 194 °C.
The same measure, in the same setting: the value for `O=C(Nc1ccc(N2CCN(Cc3ccco3)CC2)nc1)c1ccccc1-c1ccc(C(F)(F)F)cc1` [Example 14, 4′-Trifluoromethyl-biphenyl-2-carboxylic acid [2-(4-(furan-2-ylmethyl)piperazin-1-yl)-pyridin-5-yl]-amide] was 149 °C; that for `Cc1cccc(C(=O)Nc2ccc(N3CCN(Cc4ccc[nH]4)CC3)nc2)c1-c1ccc(C(F)(F)F)cc1` [Example 6, 6-Methyl4′-trifluoromethyl-biphenyl-2-carboxylic acid [2-(4-(1H-pyrrol-2-ylmethyl)piperazin-1-yl)-pyridin-5-yl]-amide] was 142 to 144 °C; that for `COc1cccc(C(=O)Nc2ccc(N3CCN(CC(N)=O)CC3)nc2)c1-c1ccc(C(C)C)cc1` [Example 3, 4′-Isopropyl-6-methoxy-biphenyl-2-carboxylic acid [2-(4-carbamoylmethyl-piperazin-1-yl)-pyridin-5-yl]-amide] was 210 to 212 °C.
Take `Cc1cccc(C(=O)Nc2ccc(N3CCN(Cc4cccc(C#N)c4)CC3)nc2)c1-c1ccc(C(F)(F)F)cc1` [Example 20, 6-Methyl-4′-trifluoromethyl-biphenyl-2-carboxylic acid [2-(4-(3-cyano-benzyl)-piperazin-1-yl)-pyridin-5-yl]-amide]: the melting point lay in the range of 164 to 166 °C.
Compound `Cc1ccc(C(=O)Nc2ccc(N3CCN(Cc4cccc(C#N)c4)CC3)nc2)c(-c2ccc(C(C)C)cc2)c1` [Example 21, 4′-Isopropyl-5-methyl-biphenyl-2-carboxylic acid [2-(4-(3-cyano-benzyl)-piperazin-1-yl)-pyridin-5-yl]-amide] came in with a melting point of 161 to 163 °C.
Regarding `C=C(C)N1CCN(c2ccc(NC(=O)c3cccc(C(C)C)c3-c3ccc(C(C)C)cc3)cn2)CC1` [Example 25, 4′,6-Diisopropyl-biphenyl-2-carboxylic acid-[2-(4-(propen-2-yl)-piperazin-1-yl)-pyridin-5-yl]-amide], the melting point is 124 °C.
In turn, `Cc1ccc(C(=O)Nc2ccc(N3CCN(Cc4cccc(C#N)c4)CC3)nc2)c(-c2ccc(C(F)(F)F)cc2)c1` [Example 22, 5-Methyl-4′-trifluoromethyl-biphenyl-2-carboxylic acid [2-(4-(3-cyano-benzyl)-piperazin-1-yl)-pyridin-5-yl]-amide] showed a melting point of 158 to 160 °C.
For the compound `CC(C)c1ccc(-c2c(C(=O)Nc3ccc(N4CCN(C)CC4)nc3)cccc2C(C)C)cc1` [Example 24, 4′,6-Diisopropyl-biphenyl-2-carboxylic acid-[2-(4-methyl-piperazin-1-yl)-pyridin-5-yl]-amide], the melting point lay within 152 to 154 °C.
The same measure, in the same setting: the value for `Cc1cccc(C(=O)Nc2ccc(N3CCN(Cc4cccc(C#N)c4)CC3)nc2)c1-c1ccc(C(C)C)cc1` [Example 19, 4′-Isopropyl-6-methyl-biphenyl-2-carboxylic acid [2-(4-(3-cyano-benzyl)-piperazin-1-yl)-pyridin-5-yl]-amide] was 154 to 156 °C.

A word on the melting point: it is the temperature, or range, at which the solid turns liquid. In general, IC50 refers to the midpoint of a concentration-inhibition curve. Read a high IC50 as weaker potency in that assay.
